Source: patent publication US20050137239A1, “Thiazole derivatives” (priority 2003, published 2005)

Columns and labels:
[1] = test system: cross-links representative of AGEs; assay: AGE crosslink breaking, sandwich enzyme-linked immunoabsorbent assay; details: pre-formed protein-sugar cross-links in multi-well plates; buffer control
Method: This example describes the efficacy of a compound of the invention for breaking crosslinks associated with AGEs using a sandwich enzyme-linked immunoabsorbent assay.
A mixture of protein and sugar was incubated to form cross-links representative of AGEs and was placed in multi-well plates. The plates were then treated with either 2-amino-4,5-dimethylthiazole HCl or buffer. After treatment, the plates were rinsed to remove any free protein liberated by cross-link breakage. An antibody reactive to the protein was then added to the plates to provide quantitative levels of protein within the plate.

[2] = target: T1, glucose oxidase (Aspergillus niger, UniProt P13006); assay: glucose oxidase inhibition, commercially available glucose oxidase kit; assay type: biochemical
T1 construct: purchased
Description: This example describes the effectiveness of a compound of the invention for inhibiting the enzyme glucose oxidase.
To test the efficacy of 2-amino-4,5-dimethylthiazole HCl for the inhibition of glucose oxidase, a commercially available glucose oxidase kit was used.

[3] = test system: AGE formation; assay: AGE formation inhibition: protein and sugar incubated at 37° C., gel formation; details: control tube forms a gel
Method: This example describes the efficacy of a compound of the invention for inhibiting AGE formation.
A control tube, containing protein and sugar, forms a gel with little or no remaining liquid when incubated at 37° C. Such a gel is indicative of extensive crosslinking associated with glycation.

T1 sequence (P13006 17-605, species assumed): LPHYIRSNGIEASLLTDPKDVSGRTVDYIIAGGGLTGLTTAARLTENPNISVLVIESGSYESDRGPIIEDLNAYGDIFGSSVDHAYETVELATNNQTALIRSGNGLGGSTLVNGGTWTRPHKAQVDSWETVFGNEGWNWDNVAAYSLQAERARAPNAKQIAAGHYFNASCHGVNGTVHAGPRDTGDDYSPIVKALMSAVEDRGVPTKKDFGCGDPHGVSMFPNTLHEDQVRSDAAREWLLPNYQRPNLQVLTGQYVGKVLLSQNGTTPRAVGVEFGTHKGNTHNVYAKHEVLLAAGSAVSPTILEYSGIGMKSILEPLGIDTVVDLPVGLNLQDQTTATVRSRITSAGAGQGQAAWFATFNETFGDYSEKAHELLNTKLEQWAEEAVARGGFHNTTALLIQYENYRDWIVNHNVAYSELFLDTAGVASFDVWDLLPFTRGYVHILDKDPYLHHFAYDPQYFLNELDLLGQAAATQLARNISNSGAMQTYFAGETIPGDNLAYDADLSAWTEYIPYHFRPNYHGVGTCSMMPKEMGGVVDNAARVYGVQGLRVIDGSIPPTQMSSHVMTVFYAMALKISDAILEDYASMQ

SMILES: Cc1nc(N)sc1C.Cl [2-amino-4,5-dimethylthiazole HCl, 2-amino-4,5-dimethylthiazole hydrochloride]
- antibody bound in the plate as compared to the control plate [1]: less antibody bound
- reduction of production of H2O2 as compared to a control sample [2]: greater than 60%
- state of protein and sugar mixture (gel indicates crosslinking associated with glycation) [3]: remained liquid
